Experimental data taken from patent US5328909A, “Cyclopropenone derivatives” (Mitsubishi Kasei Corporation, priority 1991, dated 1994).
pIC50: −log10 of the molar value. Where a name gives a salt, the structure may show the parent alone. Read-outs that look alike come from different tables or passages of the source.

Target: T1, m-calpain (Rattus norvegicus, UniProt Q07009)
T1 construct: m-calpain was purified from rat brain; from tissue; host or cells: rat brain
T1 sequence (Q07009 20-700 limits assumed): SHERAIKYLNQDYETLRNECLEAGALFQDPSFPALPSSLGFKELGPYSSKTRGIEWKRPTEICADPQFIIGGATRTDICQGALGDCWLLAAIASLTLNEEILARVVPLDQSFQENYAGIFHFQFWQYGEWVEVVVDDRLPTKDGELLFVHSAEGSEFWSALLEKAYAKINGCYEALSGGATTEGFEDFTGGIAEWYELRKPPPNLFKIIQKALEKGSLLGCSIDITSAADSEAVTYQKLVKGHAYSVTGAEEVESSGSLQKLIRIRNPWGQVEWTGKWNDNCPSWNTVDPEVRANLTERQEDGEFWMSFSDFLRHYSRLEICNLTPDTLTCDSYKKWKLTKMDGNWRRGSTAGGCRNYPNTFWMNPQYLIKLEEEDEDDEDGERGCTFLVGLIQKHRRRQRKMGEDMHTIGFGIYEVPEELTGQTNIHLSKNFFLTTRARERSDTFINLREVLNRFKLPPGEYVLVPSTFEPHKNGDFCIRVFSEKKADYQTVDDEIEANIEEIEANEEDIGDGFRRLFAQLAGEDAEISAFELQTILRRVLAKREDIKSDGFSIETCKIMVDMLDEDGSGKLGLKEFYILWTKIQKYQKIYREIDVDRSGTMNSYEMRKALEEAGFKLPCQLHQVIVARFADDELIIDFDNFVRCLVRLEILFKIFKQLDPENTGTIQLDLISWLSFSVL
T1 sequence (Q64537 1-270 partner): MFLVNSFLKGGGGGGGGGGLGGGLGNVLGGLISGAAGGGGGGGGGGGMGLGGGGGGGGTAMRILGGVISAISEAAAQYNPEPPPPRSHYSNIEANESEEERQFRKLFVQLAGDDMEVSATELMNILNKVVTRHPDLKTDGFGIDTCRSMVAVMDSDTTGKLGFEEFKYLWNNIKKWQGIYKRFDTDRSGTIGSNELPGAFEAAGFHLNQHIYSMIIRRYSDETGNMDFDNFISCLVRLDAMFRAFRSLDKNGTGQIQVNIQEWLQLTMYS
Experiment: Thiol protease inhibitory activity against m-calpain purified from rat brain
Type: biochemical
Procedure: Inhibitory activity against papain (P-3125, Sigma) and cathepsin B (C-6286, Sigma) was assayed according to the method described in a literature [Biochemical Journal, 201, 189 (1982)]. Capthesin L was purified from rat kidney according to the method in a literature [Journal of Biochemistry, 100, 35 (1986)], and the inhibitory activity against it was assayed in the same manner as described in the above literature for cathepsin B. Further, m-calpain was purified from rat brain according to a known method [Journal of Biological Chemistry, 254, p.3210 (1984)] and the inhibitory activity against it was assayed by a method described in a literature [Journal of Biological Chemistry, 259, 12489 (1984)]. The results are showing in Tables 3 and 4. It is evident from Tables 3 and 4 that the compounds in the present invention have a potent inhibitory activity against thiol proteases such as papain, cathepsin B, cathepsin L, m-calpain or the like.

[1] = Table 4, rat brain enzyme, read-out: Inhibitory activity against m-calpain IC50

SMILES | pIC50 [1] | pIC50
CC(C)C[C@H](NC(=O)OCc1ccccc1)C(=O)N[C@@H](Cc1ccccc1)C(O)c1cc1=O (stereo partly drawn) [9 (No. 26), 2-[(2S)-2-((S)-2-benzyloxycarbonylamino-4-methylvalerylamino)-1-hydroxy-3-phenylpropyl]cyclopropenone] | 5.30 | –
CC(C)COC(=O)N[C@@H](CC(C)C)C(=O)N[C@@H](C(C)C)[C@@H](O)c1c(-c2ccccc2)c1=O [20 (No. 72), 2-[(1S, 2S)-1-hydroxy-2-((S)-2-isobutoxycarbonylamino-4-methylvalerylamino)-3-methylbutyl]-3-phenylcyclopropenone] | 5.89 | –
CC(C)COC(=O)N[C@@H](CC(C)C)C(=O)N[C@@H](C(C)C)[C@H](O)c1c(-c2ccccc2)c1=O [21 (No. 72), 2-[(1R, 2S)-1-hydroxy-2-((S)-2-isobutoxycarbonylamino-4-methylvalerylamino)-3-methylbutyl]-3-phenylcyclopropenone] | 5.52 | –
CC(C)C[C@H](NC(=O)OCc1ccccn1)C(=O)N[C@@H](C(C)C)[C@@H](O)c1c(-c2ccccc2)c1=O [29 (No. 97), 2-[(1s, 2S)-1-hydroxy-3-methyl-2-{(S)-4-methyl-2-(2-pyridylmethoxycarbonylamino)valerylamino}butyl]-3-phenylcyclopropenone hydrochloride] | 5.77 | –
CC(C)C[C@H](NC(=O)OCc1ccncc1)C(=O)N[C@@H](C(C)C)[C@@H](O)c1c(-c2ccccc2)c1=O [31 (No. 99), 2-[(1S, 2S)-1-hydroxy-3-methyl-2-{(S)-4-methyl-2-(4-pyridylmethoxycarbonylamino)valerylamino}butyl]-3-phenylcyclopropenone hydrochloride] | 5.89 | –
CC(C)C[C@H](NC(=O)OCc1ccncc1)C(=O)N[C@@H](C(C)C)[C@H](O)c1c(-c2ccccc2)c1=O [32 (No. 99), 2-[(1R, 2S)-1-hydroxy-3-methyl-2-{(S)-4-methyl-2-(4-pyridylmethoxycarbonylamino)valerylamino}butyl]-3-phenylcyclopropenone hydrochloride] | 5.92 | –
CC(C)C[C@H](NC(=O)Oc1ccccc1)C(=O)N[C@@H](C(C)C)[C@@H](O)c1c(-c2ccccc2)c1=O [33 (No. 102), 2-[(1S, 2S)-1-hydroxy-3-methyl-2-((S)-4-methyl-2-phenoxycarbonylamino)valerylamino]-3-phenylcyclopropenone] | – | 6.08
CC(C)CCC(=O)N[C@@H](CC(C)C)C(=O)N[C@@H](C(C)C)[C@@H](O)c1c(-c2ccccc2)c1=O [37 (No. 114), 2-[(1S, 2S)-1-hydroxy-2-((S)-2-isohexanoylamino-4-methylvalerylamino)-3-methylbutyl]-3-phenylcyclopropenone] | 5.68 | –
CCCCCCCCCCCC(=O)N[C@@H](CC(C)C)C(=O)N[C@@H](C(C)C)[C@@H](O)c1c(-c2ccccc2)c1=O [38 (No. 120), 2-[(1S, 2S)-1-hydroxy-2-((S)-2-lauroylamino-4-methylvalerylamino)^- 3-methylbutyl]-3-phenylcyclopropenone] | 5.40 | –
CC(C)C[C@H](NC(=O)CCC1CCCCC1)C(=O)N[C@@H](C(C)C)[C@@H](O)c1c(-c2ccccc2)c1=O [39 (No. 124), 2-[(1S, 2S)-2-{(S)-2-(3-cyclohexylpropionylamino)-4-methylvalerylamino} -1-hydroxy-3-methylbutyl]-3-phenylcyclopropenone] | 5.72 | –
CC(C)C[C@H](NC(=O)C1CCCCC1)C(=O)N[C@@H](C(C)C)[C@@H](O)c1c(-c2ccccc2)c1=O [40 (No. 129), 2-[(1S, 2S)-2-((S)-2-cyclohexylcarbonylamino-4-methylvalerylamino)-1-hydroxy-3-methylbutyl]-3-phenylcyclopropenone] | 5.59 | –
CC(C)C[C@H](NC(=O)Cc1ccccc1)C(=O)N[C@@H](C(C)C)[C@@H](O)c1c(-c2ccccc2)c1=O [41 (No. 132), 2-[(1S, 2S)-1-hydroxy-3-methyl-2-((S)-4-methyl-2-phenylacetylaminovalerylamino)butyl]-3-phenylcyclopropenone] | 5.85 | –
